# Assays:
# V79 cells [1] = system: V79 cells
# V79 cells [2] = system: V79 cells; remark: listed apart in the source
# rabbit red cells = conditions: in vivo
# cells = conditions: cited from earlier work
compound,measurement,setting,value
"O=S(=O)(O)CCCNC1CCCCC1 [CAPS, 3-(Cyclohexylamino)-1-propanesulfonic acid]",effect on cell doubling time compared to phosphate buffered saline,Yac cells,negligable effects on cell doubling time
"O=S(=O)(O)CC(O)CN(CCO)CCO (stereo not drawn) [DIPSO, 3-[N--N--bis(2-hydroxyethyl)amino]-2-hydroxypropane-sulfonic acid]",effect on cell doubling time compared to phosphate buffered saline,Yac cells,negligable effects on cell doubling time
CCCCCCCCCCCCCCN1C(=CC=Cc2oc3ccccc3[n+]2CCCCCCCCCCCCCC)Oc2ccccc21 [DiOC14 (3)],Cell doubling time of stained cells,V79 cells [1],unaffected
same,"Effect on cell viability, Propidium Iodide exclusion",V79 cells [2],absence of effect on cell viability
same,"Effect on cell viability, Trypan Blue Exclusion",V79 cells [2],absence of effect on cell viability
CCCCCCCCCCCCCCN1C(=CC=CC=Cc2sc3ccccc3[n+]2CCCCCCCCCCCCCC)Sc2ccccc21 [DiSC14 (5)],effect on clearance rate of red blood cells,rabbit red cells,did not affect the clearance rate of red blood cells
same,lifetime of labelled red cells in circulation,rabbit red cells,52 days
"O=S(=O)(O)CCCN1CCN(CCO)CC1 [EPPS, N--(2-Hydroxyethyl)piperazine-N'--3-propanesulfonic acid]",effect on cell doubling time compared to phosphate buffered saline,Yac cells,negligable effects on cell doubling time
O=C[C@H](O)[C@@H](O)[C@H](O)[C@H](O)CO [Glucose],effect on cell doubling time compared to phosphate buffered saline,Yac cells,negligable effects on cell doubling time
"O=S(=O)(O)CC(O)CN1CCN(CCO)CC1 (stereo not drawn) [HEPPSO, N--2-hydroxyethylpiperazine-N'--2-hydroxypropane-sulfonic acid]",effect on cell doubling time compared to phosphate buffered saline,Yac cells,negligable effects on cell doubling time
OC[C@H]1O[C@@](CO)(O[C@H]2O[C@H](CO)[C@@H](O)[C@H](O)[C@H]2O)[C@@H](O)[C@@H]1O [Sucrose],Doubling Time,Yac cells,41.0 h
same,effect on cell doubling time compared to phosphate buffered saline,Yac cells,negligable effects on cell doubling time
"O=S(=O)(O)CCCNC(CO)(CO)CO [TAPS, Tris(hydroxymethyl)-methylaminopropane sulfonic acid]",effect on cell doubling time compared to phosphate buffered saline,Yac cells,negligable effects on cell doubling time
CCCCN1C(=O)C(=CC=CC=C2Oc3ccccc3N2CCCS(=O)(=O)O)C(=O)N(CCCC)C1=S [merocyanine 540],cytotoxicity,cells,cytotoxic when the cell is exposed to light
Phosphate Buffered Saline,Doubling Time,Yac cells,31.0 h

# — patent publication US4783401A (priority 1986, dated 1988)
